The values that follow come from patent US9393221B2, “Methods and compounds for reducing intracellular lipid storage” (THE GENERAL HOSPITAL CORPORATION, priority 2011, dated 2016).

Structures are written as SMILES. Counter-ions that a name gives are not always drawn. Like-named read-outs stand apart in the source and are kept apart here.

For this assay, the system named is ATGL-KO iPSCs. The experiment in a line: High throughput iPSC chemical screening, Oil Red O (ORO) lipid accumulation. On Z-score: test concentration or dose not given here. The class given is cell-based, mouse. As to conditions: for Rank in normalized ORO score from screen: glycolytic switch compounds.
Setting [1] is: normalized ORO level vs DMSO-treated cells, compound present during 7 days differentiation, 96-well, negative = decrease in lipid accumulation.

Under setting [1], `C=C(C)[C@@H]1[C@H]2OC(=O)[C@@H]1[C@]1(O)C[C@H]3O[C@]34C(=O)O[C@H]2[C@]14C` [Picrotoxinin] gave a Z-score of −0.1703.

As for `CC[C@@H]1C(=O)OC[C@@H]1Cc1cncn1C` [Pilocarpine nitrate], the Z-score under setting [1] was −0.2819.

For `CN1CCC(=C2c3ccccc3Sc3ccccc32)CC1` [Pimethixene maleate], the Z-score under setting [1] was −0.4872.

For `O=c1[nH]c2ccccc2n1C1CCN(CCCC(c2ccc(F)cc2)c2ccc(F)cc2)CC1` [Pimozide], the “Rank in normalized ORO score from screen” value amounted to 330. For the same compound, the Z-score under setting [1] is on record as −0.7483.

Consider `CC(N/C(=N\C#N)Nc1ccncc1)C(C)(C)C` (centres unmarked) [Pinacidil], for which, under setting [1], the Z-score turned out to be 0.3162.

`CC(C)NCC(O)COc1cccc2[nH]ccc12` (centres unmarked) [Pindolol] returned a Z-score under setting [1] of 0.03656.

The compound `CCn1cc(C(=O)O)c(=O)c2cnc(N3CCNCC3)nc21` [Pipemidic acid] displayed a Z-score under setting [1] of −1.4165.

As to `CC[N+]1(C)CCCC(OC(=O)C(O)(c2ccccc2)c2ccccc2)C1` (centres unmarked) [Pipenzolate bromide], the Z-score under setting [1] was −1.06.

`CC(=O)c1ccc2c(c1)N(CCCN1CCC(CCO)CC1)c1ccccc1S2` [Piperacetazine]: under setting [1], the Z-score was −0.4798.

On to `CCN1CCN(C(=O)N[C@@H](C(=O)N[C@@H]2C(=O)N3[C@@H]2SC(C)(C)[C@@H]3C(=O)O)c2ccccc2)C(=O)C1=O` [Piperacillin sodium salt], for which the Z-score under setting [1] is on record as −0.9149.

With `CCN1CCCC(OC(=O)C(c2ccccc2)c2ccccc2)C1` (centres unmarked) [Piperidolate hydrochloride], the “Rank in normalized ORO score from screen” value is 449. The compound further yielded a Z-score under setting [1] of −0.4895.

In turn, `O=C(/C=C/C=C/c1ccc2c(c1)OCO2)N1CCCCC1` [Piperine] registered a Z-score under setting [1] of 1.588.

For `COc1cc(/C=C/C(=O)N2CCC=CC2=O)cc(OC)c1OC` [Piperlongumine], under setting [1], the Z-score was 16.6479.

Under setting [1], `NC(=O)CN1CCCC1=O` [Piracetam] had a Z-score of 0.8038.

In turn, `CN1CCN(CC(=O)N2c3ccccc3C(=O)Nc3cccnc32)CC1` [Pirenzepine dihydrochloride] had a Z-score under setting [1] of −1.096.

`NS(=O)(=O)c1cc(C(=O)O)cc(N2CCCC2)c1Oc1ccccc1` [Piretanide] registered a Z-score under setting [1] of 0.2521.

In turn, `c1cnc(N2CCN(Cc3ccc4c(c3)OCO4)CC2)nc1` [Piribedil hydrochloride] showed a Z-score under setting [1] of −1.3522.

Under setting [1], `CCn1cc(C(=O)O)c(=O)c2cnc(N3CCCC3)nc21` [Piromidic acid] came in with a Z-score of 0.2604.

`CN1C(C(=O)Nc2ccccn2)=C(O)c2ccccc2S1(=O)=O` [Piroxicam]: the Z-score under setting [1] was 0.7254.

In turn, `CC(C)(C)C(=O)OCOC(=O)[C@@H]1N2C(=O)[C@@H](NC(=O)[C@H](N)c3ccccc3)[C@H]2SC1(C)C` [Pivampicillin] had a Z-score under setting [1] of −1.1929.

The compound `CC(C)(C)C(=O)OCOC(=O)[C@@H]1N2C(=O)[C@@H](/N=C/N3CCCCCC3)[C@H]2SC1(C)C` [Pivmecillinam hydrochloride] came in with a Z-score under setting [1] of −0.219.

`COc1cc([C@@H]2c3cc4c(cc3[C@H](O)[C@H]3COC(=O)[C@H]23)OCO4)cc(OC)c1OC` [Podophyllotoxin] returned a Z-score under setting [1] of 46.4771.

Under setting [1], `CC(=O)Nc1ccc(OCC(O)CNC(C)C)cc1` (centres unmarked) [Practolol] yielded a Z-score of −0.3373.

For the compound `C[n+]1ccccc1/C=N/O` [Pralidoxime chloride], the Z-score amounted to 1.281.

In turn, `CCCCOc1ccc(OCCCN2CCOCC2)cc1` [Pramoxine hydrochloride] showed a Z-score under setting [1] of 0.5195.

`O=C(C1CCCCC1)N1CC(=O)N2CCc3ccccc3C2C1` (centres unmarked) [Praziquantel] showed a Z-score under setting [1] of −0.5159.

`COc1cc2nc(N3CCN(C(=O)c4ccco4)CC3)nc(N)c2cc1OC` [Prazosin hydrochloride]: the Z-score under setting [1] was 0.6597.

For the compound `CCOC(=O)O[C@]1(C(=O)COC(=O)CC)CC[C@H]2[C@@H]3CCC4=CC(=O)C=C[C@]4(C)[C@H]3[C@@H](O)C[C@@]21C` [Prednicarbate], the Z-score under setting [1] is −0.9408.

Consider `C[C@]12C=CC(=O)C=C1CC[C@@H]1[C@@H]2[C@@H](O)C[C@@]2(C)[C@H]1CC[C@]2(O)C(=O)CO` [Prednisolone], for which the Z-score under setting [1] is recorded as −0.8986.

`C[C@]12C=CC(=O)C=C1CC[C@@H]1[C@@H]2C(=O)C[C@@]2(C)[C@H]1CC[C@]2(O)C(=O)CO` [Prednisone] registered a Z-score under setting [1] of 0.05393.

For the compound `CC(=O)[C@H]1CC[C@H]2[C@@H]3CC=C4C[C@@H](O)CC[C@]4(C)[C@H]3CC[C@]12C` [Pregnenolone], the “Rank in normalized ORO score from screen” value was determined as 924. For the same compound, the Z-score under setting [1] is 1.076.

`CCCNC(C)C(=O)Nc1ccccc1C` (centres unmarked) [Prilocaine hydrochloride] had a Z-score under setting [1] of −1.2624.

In the case of `COc1cc(NC(C)CCCN)c2ncccc2c1` (centres unmarked) [Primaquine diphosphate], the Z-score under setting [1] is recorded as 5.51.

In the case of `CCC1(c2ccccc2)C(=O)NCNC1=O` [Primidone], the Z-score under setting [1] is reported as −0.0045.

`CCCC(C(=O)OCCN(CC)CC)(c1ccccc1)c1ccccc1` [Proadifen hydrochloride]: the Z-score under setting [1] is listed as −1.1876.

For the compound `CCCN(CCC)S(=O)(=O)c1ccc(C(=O)O)cc1` [Probenecid], the Z-score under setting [1] worked out at 0.754.

`CC(C)(Sc1cc(C(C)(C)C)c(O)c(C(C)(C)C)c1)Sc1cc(C(C)(C)C)c(O)c(C(C)(C)C)c1` [Probucol] registered a Z-score under setting [1] of 1.626.

Turning to `CCN(CC)CCNC(=O)c1ccc(N)cc1` [Procainamide hydrochloride], the Z-score under setting [1] is given as −0.2319.

For the compound `CCN(CC)CCOC(=O)c1ccc(N)cc1` [Procaine hydrochloride], the Z-score under setting [1] is −0.5215.

With `CNNCc1ccc(C(=O)NC(C)C)cc1` [Procarbazine hydrochloride], the Z-score under setting [1] worked out at 1.675.

Compound `CN1CCN(CCCN2c3ccccc3Sc3ccc(Cl)cc32)CC1` [Prochlorperazine dimaleate] registered a Z-score under setting [1] of 1.82.

Compound `OC(CCN1CCCC1)(c1ccccc1)C1CCCCC1` (centres unmarked) [Procyclidine hydrochloride] showed a Z-score under setting [1] of −0.6071.

For the compound `CC(=O)[C@H]1CC[C@H]2[C@@H]3CCC4=CC(=O)CC[C@]4(C)[C@H]3CC[C@]12C` [Progesterone], under setting [1], the Z-score turned out to be 2.344.

`CCCN(CCC)C(=O)C(CCC(=O)O)NC(=O)c1ccccc1` (centres unmarked) [Proglumide] showed a Z-score under setting [1] of 0.1235.

`[H]/N=C(\N/C(=N/[H])Nc1ccc(Cl)cc1)NC(C)C` [Proguanil hydrochloride] displayed a Z-score under setting [1] of 16.0329.

On to `CN(C)CCCN1c2ccccc2Sc2ccccc21` [Promazine hydrochloride], for which the Z-score under setting [1] amounted to 0.01386.

In turn, `CC(CN1c2ccccc2Sc2ccccc21)N(C)C` (centres unmarked) [Promethazine hydrochloride] showed a Z-score under setting [1] of −1.4251.

For `CC(C)NCC(O)c1ccc2ccccc2c1` (centres unmarked) [Pronethalol hydrochloride], the Z-score under setting [1] is on record as −0.9002.

For `CCCNCC(O)COc1ccccc1C(=O)CCc1ccccc1` (centres unmarked) [Propafenone hydrochloride], the Z-score under setting [1] is −0.6438.

Under setting [1], `CC(C)[N+](C)(CCOC(=O)C1c2ccccc2Oc2ccccc21)C(C)C` [Propantheline bromide] returned a Z-score of −0.9862.

In the case of `CCCOc1ccc(C(=O)OCCN(CC)CC)cc1N` [Proparacaine hydrochloride], the Z-score under setting [1] was 0.9367.

The compound `CC[N+](C)(CC)CCC[n+]1c(-c2ccccc2)c2cc(N)ccc2c2ccc(N)cc21.[I-].[I-]` [Propidium iodide] displayed a Z-score under setting [1] of 4.014.

In turn, `CC(C)c1cccc(C(C)C)c1O` [Propofol] came in with a Z-score of −0.9649.

Take `CCCOc1cc(N)ccc1C(=O)OCCN(CC)CC` [Propoxycaine hydrochloride]: the Z-score under setting [1] is reported as −0.3049.

For `CC(C)NCC(O)COc1cccc2ccccc12` (centres unmarked) [Propranolol hydrochloride], the Z-score under setting [1] was 2.05.

Turning to `CCCc1cc(=O)[nH]c(=S)[nH]1` [Propylthiouracil], the Z-score under setting [1] is −0.0857.

Turning to `C[C@@H]1O[C@@H](O[C@@H]2C=C3CC[C@@H]4[C@H](CC[C@]5(C)[C@@H](c6ccc(=O)oc6)CC[C@]45O)[C@@]3(C)CC2)[C@H](O)[C@H](O)[C@H]1O` [Proscillaridin A], the Z-score under setting [1] is given as −1.0698.

`CC[C@@H](C)C(=O)O[C@H]1[C@H](O)[C@H]2[C@@H](CN3C[C@@H](C)CC[C@H]3[C@@]2(C)O)[C@@H]2C[C@]34O[C@]5(O)[C@@H](OC(=O)[C@@](C)(O)CC)CC[C@@]3(C)[C@@H]5[C@@H](OC(C)=O)[C@@H](OC(C)=O)[C@H]4[C@@]21O` [Protoveratrine A] returned a Z-score under setting [1] of 1.895.

The compound `CNCCCC1c2ccccc2C=Cc2ccccc21` [Protriptyline hydrochloride] displayed a Z-score under setting [1] of −0.1298.

`CC(O)Cn1cnc2c1c(=O)n(C)c(=O)n2C` (centres unmarked) [Proxyphylline] registered a Z-score under setting [1] of −0.7317.

The compound `CN1[C@@H]2CCC[C@H]1CC(=O)C2.Cl` [Pseudopelletierine hydrochloride] came in with a Z-score under setting [1] of 0.1911.

Compound `COc1ccc(C[C@H](N)C(=O)N[C@H]2[C@@H](O)[C@H](n3cnc4c(N(C)C)ncnc43)O[C@@H]2CO)cc1` [Puromycin dihydrochloride] yielded a Z-score under setting [1] of 74.4112.

In the case of `NC(=O)c1cnccn1` [Pyrazinamide], the Z-score under setting [1] was −1.0312.

In turn, `Cc1ncc(CO)c(CO)c1O.Cl` [Pyridoxine hydrochloride] gave a Z-score under setting [1] of 1.366.

Compound `COc1ccc(CN(CCN(C)C)c2ccccn2)cc1` [Pyrilamine maleate] showed a Z-score under setting [1] of −1.3015.

With `CCc1nc(N)nc(N)c1-c1ccc(Cl)cc1` [Pyrimethamine], the Z-score under setting [1] was 2.959.

Consider `CCC1(CC)C(=O)C=CNC1=O` [Pyrithyldione], for which, under setting [1], the Z-score is recorded as 0.5042.

Compound `O.O.O=c1c(O)c(-c2ccc(O)c(O)c2)oc2cc(O)cc(O)c12` [Quercetine dihydrate] came in with a Z-score under setting [1] of −0.8659.

The compound `CCN(CC)CCCC(C)Nc1c2ccc(Cl)cc2nc2ccc(OC)cc12` (centres unmarked) [Quinacrine dihydrochloride dihydrate] had a Z-score under setting [1] of 0.141.

With `CCC1NC(=O)c2cc(S(N)(=O)=O)c(Cl)cc2N1` (centres unmarked) [Quinethazone], the Z-score under setting [1] is −0.4993.

Under setting [1], `O=C(O)[C@]1(O)C[C@@H](O)[C@@H](O)[C@H](O)C1` [Quinic acid] registered a Z-score of 1.0976.
